Test results as given in PMC8121435, “Cork-in-bottle mechanism of inhibitor binding to mammalian complex I” (Science Advances, 2021).

Tests used:
Type in all cases: biochemical
complex I in bovine SMPs = target: T1, complex I in bovine SMPs (Bos taurus, UniProt P03887+P17694+P42026); test: Forward electron transport (NADH oxidation) in bovine heart submitochondrial particles; conditions: NADH oxidation rate, ± SE
T1 construct: Complex I from bovine heart were prepared; from tissue; host or cells: bovine heart mitochondria
Experimental: (§1) All catalytic activity assays were conducted at 32°C in 96-well plates using a Molecular Devices Spectramax 384 plus plate reader. Catalysis was initiated by addition of 200 μM NADH and monitored at 340 and 380 nm (ε340–380 = 4.81 mM^−1 cm^−1). Linear rates were measured for all assays, inhibitors were added from dimethyl sulfoxide stock solutions as required, and inhibitor-insensitive rates (using either 1 μM piericidin A or 1.4 μM IACS-2858) were subtracted from each measured rate. Membrane samples were prepared as described previously ([17], [20], [59], [60]), diluted to 20 μg ml^−1 in 10 mM tris-SO4 (pH 7.5) and 250 mM sucrose, and supplemented with 3 μM horse heart cytochrome c (except for P. denitrificans, for which the activity is unaffected by the addition). Mouse, bovine, and yeast (Y. lipolytica) complex I were purified as described previously ([17], [20], [59]); diluted to 0.5 nM in 20 mM tris-HCl (pH 7.5), 0.15% asolectin, and 0.15% CHAPS; and assayed using either 200 μM dQ or 200 μM ubiquinone-1 (Sigma-Aldrich). Complex I was purified from P. denitrificans strain Pd1222 ([61]) and provided by O. D. Jarman (MRC Mitochondrial Biology Unit, University of Cambridge); it was assayed likewise but in 10 mM MES-HCl (pH 6.5), 25 mM NaCl, and 2 mM CaCl2. […]

[1] = target: T2, complex I in mitochondrial membranes (Bos taurus, UniProt P03887+P17694+P42026); test: NADH oxidation in bovine mitochondrial membranes; conditions: B. taurus membranes 20 μg ml−1; ± SE
T2 construct: Complex I from bovine heart were prepared; from tissue; host or cells: bovine heart mitochondria
Experimental: as §1

[2] = target: T3, yeast (Y. lipolytica) complex I (Yarrowia lipolytica, UniProt Q9B6E8+Q9UUT7+Q9UUU1); test: NADH:decylubiquinone oxidoreduction by purified Y. lipolytica complex I
T3 sequence (Q9B6E8 1-341): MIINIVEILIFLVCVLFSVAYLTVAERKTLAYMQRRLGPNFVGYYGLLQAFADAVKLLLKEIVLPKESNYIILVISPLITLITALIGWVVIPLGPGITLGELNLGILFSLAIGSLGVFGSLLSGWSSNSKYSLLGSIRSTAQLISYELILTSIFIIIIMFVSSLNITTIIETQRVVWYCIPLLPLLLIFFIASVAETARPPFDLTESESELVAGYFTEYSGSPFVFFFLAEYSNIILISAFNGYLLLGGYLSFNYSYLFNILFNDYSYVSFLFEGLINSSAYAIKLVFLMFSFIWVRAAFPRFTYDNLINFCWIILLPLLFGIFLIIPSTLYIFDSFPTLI
T3 sequence (Q9UUU1 22-466): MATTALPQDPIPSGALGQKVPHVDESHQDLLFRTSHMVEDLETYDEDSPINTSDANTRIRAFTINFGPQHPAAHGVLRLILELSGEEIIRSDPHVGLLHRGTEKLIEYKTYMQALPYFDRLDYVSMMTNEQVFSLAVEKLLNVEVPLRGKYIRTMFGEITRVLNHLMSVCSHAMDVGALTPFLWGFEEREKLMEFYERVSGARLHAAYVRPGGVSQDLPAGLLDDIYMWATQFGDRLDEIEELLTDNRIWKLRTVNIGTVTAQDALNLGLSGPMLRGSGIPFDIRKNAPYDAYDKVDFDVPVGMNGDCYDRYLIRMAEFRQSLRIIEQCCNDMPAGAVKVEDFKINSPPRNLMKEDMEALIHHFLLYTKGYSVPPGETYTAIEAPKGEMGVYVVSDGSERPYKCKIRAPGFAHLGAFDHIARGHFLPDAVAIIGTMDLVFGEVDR
T3 sequence (Q9UUT7 28-210): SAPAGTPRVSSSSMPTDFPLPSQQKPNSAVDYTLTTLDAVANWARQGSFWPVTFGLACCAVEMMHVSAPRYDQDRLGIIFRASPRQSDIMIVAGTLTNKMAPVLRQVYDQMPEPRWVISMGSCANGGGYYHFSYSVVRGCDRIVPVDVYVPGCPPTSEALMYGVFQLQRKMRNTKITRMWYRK
Experimental: as §1

CS(=O)(=O)C1CCN(c2cccc(Cn3cc(-c4nc(-c5ccc(OC(F)(F)F)cc5)no4)ccc3=O)c2)CC1 [IACS-2858, 1-(3-(4-(Methylsulfonyl)piperidin-1-yl)benzyl)-5-(3-(4-(trifluoromethoxy)phenyl)-1,2,4-oxadiazol-5-yl)pyridin-2(1H)-one]
IC50 (complex I in bovine SMPs): 6.4 ± 0.2 nM | IC50 [1]: 3.4 ± 0.3 nM | IC50 [2]: 358 ± 37 nM
